Source: patent US20040259823A1, “Cationic amphiphiles as transfection vehicles” (priority 2001, published 2004)

What was measured:
Assay type in all cases: cell-based
COS-7 and HepG2 cells [1] = assay: Transfection with pCMV GFP plasmid, % GFP positive cells by FACS (cell line not given); conditions: cell line and helper lipid not given
Description: (§1) Transfections were carried out following standard protocols as is described in EP 0755924. In numerous publications variations of transfection protocols are given. A person acquainted with the field of non-viral transfections, in particular transfections using cationic amphiphiles will be able to use the cationic amphiphiles of the invention in transfection methods known per se. In standard experiments COS-7 cells are transfected with plasmid DNA containing the β-galactosidase reporter gene. Upon successful transfection the cell produces the enzyme β-galactosidase whose activity can be easily measured. Other plasmids comprising alternative reporter genes such as the gene encoding Green Fluorescent Protein or Chloroamphenicol Acetyl Transferase are suited as well. For analyzing stable transfection a plasmid containing the neomycin resistance gene can be used. Toxicity of the cationic amphiphiles towards the cells can be monitored qualitatively and quantitatively by visual inspection of the cells and by a protein determination.
(§2) A solution of cationic amphiphile in a 50/50 molar ratio with DOPE, DOPC or cholesterol in chloroform was dried under a stream of nitrogen. The residual solvent was removed under vacuum. The lipid film was hydrated in water at room temperature and sonicated to clarity in a bath sonicator immediately before use.
(§3) A 4.7 kb pair plasmid containing the GFP reporter gene under control of the cytomegalovirus immediate early gene promoter/enhancer (pCMV GFP).DNA was isolated from E. coli using a Qiagen Plasmid Kit (QIAGEN Inc, USA). The plasmid concentration was determined by measuring the absoption at 260 nm using the relation 1.0 OD=50 μg/ml. The OD260/OD280 value was 1.95.
(§4) COS-7 and HepG2 cells were cultured in Dulbecco's Modified Eagle Medium (DMEM Gibco The Netherlands) containing 7% of fetal calf serum, 2 mM L-Glutamine, 100 units/ml of penicilin and […] of streptomycin at 37° C. in CO2/air (1:19).
(§5) Cells (1×10^5 cells/well) were seeded in 12-well plates and were allowed to grow overnight.
(§6) The complex of cationic amphiphile/helper lipid (1:1) with pCMV GFP was prepared at the charge ratio 2.5:1 (15 nmol lipid and 1 μg DNA), in 100 μl 10 mM HEPES (pH=7.4, 150 mM NaCl). After 10-15 min incubation at room temperature, the resulting complex was diluted in 1 ml medium (DMEM) and 0.5 ml of the mixture was added to the cells and incubated for 4 h at 37° C. The transfection efficiency expressed as a percentage of GFP positive cells was measured by FACS (Fluorescence Activated Cell Soorting) 48 hours after the transfection.
(§7) Control wells underwent identical steps except that no cationic amphiphile was added.

COS-7 and HepG2 cells [2] = assay: Cell survival after transfection (cell line not given); conditions: cell line and helper lipid not given
Description: as §1, §4, §5, §6, §7

HepG2 [3] = assay: Transfection with pCMV GFP plasmid, % GFP positive cells by FACS (Table 3); conditions: HepG2, DOPE
Description: as §1, §2, §3, §4, §5, §6, §7

HepG2 [4] = assay: Cell survival after transfection (Table 3); conditions: HepG2, DOPE; also: tested at 6.8 µM
Description: as §1, §4, §5, §6, §7

SMILES | % TE (COS-7 and HepG2 cells [1]; Table 1) [%] | % TE (COS-7 and HepG2 cells [1]; Table 2) [%] | % TE (COS-7 and HepG2 cells [1]; Table 7) [%] | % TE (COS-7 and HepG2 cells [1]; Table 8) [%] | % TE (COS-7 and HepG2 cells [1]; Table 9) [%] | % TE (COS-7 and HepG2 cells [1]; Table 10) [%] | % surv cells (COS-7 and HepG2 cells [2]; Table 1) [%] | % surv cells (COS-7 and HepG2 cells [2]; Table 2) [%] | % surv cells (COS-7 and HepG2 cells [2]; Table 7) [%] | % surv cells (COS-7 and HepG2 cells [2]; Table 8) [%] | % TE (HepG2 [3]; first value) [%] | % TE mean (HepG2 [3]) [%] | % TE (HepG2 [3]; second value) [%] | % TE (COS-7 and HepG2 cells [1]; Table 4) [%] | % TE (COS-7 and HepG2 cells [1]; Table 6) [%] | % surv cells (HepG2 [4]; first value) [%] | % surv cells Mean (HepG2 [4]) [%] | % surv cells (HepG2 [4]; second value) [%] | % surv cells (COS-7 and HepG2 cells [2]; Table 4) [%] | % surv cells (COS-7 and HepG2 cells [2]; Table 6) [%] | other results
CCCCCCCCCCCCCCCC[n+]1ccc(CCCCCCCCCCCCC)cc1.[Cl-] [SF36, 1-hexadecyl-4-tridecyl-pyridinium Chloride] | 1.39 | 15.06 | 25.36 | 4.46 | 2.73 | 1.75 | 76.77 | 36.8 | 84.28 | 64.88 |  |  |  |  |  |  |  |  |  |  | % surv cells (COS-7 and HepG2 cells [2]; Table 9): 63.36%; % surv cells (COS-7 and HepG2 cells [2]; Table 10): 37.75%
CCCCCCCCCCCCCCCCCC[n+]1ccc(CCCCCCCCCCCCC)cc1.[Cl-] [SF37, 1-stearyl-4-tridecyl-pyridinium Chloride] | 4.4 | 18.39 | 8.5 | 5.02 | 2.95 | 2.74 | 70.04 | 41.67 | 75.65 | 70.7 |  |  |  |  |  |  |  |  |  |  | % surv cells (COS-7 and HepG2 cells [2]; Table 9): 64.58%; % surv cells (COS-7 and HepG2 cells [2]; Table 10): 63.85%
CCCCCCCC/C=C\CCCCCCCC[n+]1ccc(C)cc1.[Cl-] [SF38, 1-(9′-cis-octadecenyl)-4-methyl-pyridinium Chloride] |  |  |  |  |  |  |  |  |  |  | 0.82 | 0.555 | 0.29 | 5.43 | 0.47 | 23.6 | 22.05 | 20.5 | 63.19 | 94.13 | 
CCCCCCCC/C=C\CCCCCCCC[n+]1ccc(CCC)cc1.[Cl-] [SF39, 1-(9′-cis-octadecenyl)-4-propyl-pyridinium Chloride] |  |  |  |  |  |  |  |  |  |  | 0.1 | 0.085 | 0.07 | 4.38 | 0.84 | 24.55 | 28.015 | 31.48 | 66.48 | 92.2 | 
CCCCCCCC/C=C\CCCCCCCC[n+]1ccc(CCCCC)cc1.[Cl-] [SF40, 1-(9′-cis-octadecenyl)-4-pentyl-pyridinium Chloride] |  |  |  |  |  |  |  |  |  |  | 0.04 | 0.09 | 0.14 | 5.18 | 0.16 | 30.55 | 30.09 | 29.63 | 69.87 | 94.54 | 
CCCCCCCC/C=C\CCCCCCCC[n+]1ccc(CCCCCCC)cc1.[Cl-] [SF41, 1-(9′-cis-octadecenyl)-4-heptyl-pyridinium Chloride] |  |  |  |  |  |  |  |  |  |  | 0.07 | 0.085 | 0.1 | 7.13 | 3.44 | 28.65 | 34.62 | 40.59 | 60.54 | 89.11 | 
